# Measured values taken from patent US20230047788A1, “COMPOSITIONS COMPRISING 5-CHOLESTEN-3, 25-DIOL, 3-SULFATE (25HC3S) OR PHARMACEUTICALLY ACCEPTABLE SALT THEREOF AND AT LEAST ONE CYCLIC OLIGOSACCHARIDE” (Virginia Commonwealth University, priority 2016, published 2023).
# Where “and” joins values, the source holds several entries; their conditions need not be identical. Identical values can stand only once.
# Assay: Infusion compatibility of constituted 25HC3S solution with 5% dextrose, 0.9% sodium chloride and two infusion sets
# Format: physicochemical
# Conditions: for Osmolality / pH / % Remaining Compared to T = 0 / Concentration / T = 0 Conc.: 5% dextrose bag
# Method: After constitution with Vehicle, the 30 mg/mL 25HC3S product was diluted into 100 mL of 5% dextrose injection, USP or 0.9% sodium chloride injection, USP, and was administered to subjects as an IV infusion ranging from a 30 mg to 150 mg 25HC3S dose. This was accomplished by adding 1.0 mL (for the 30 mg dose) or 5.0 mL (for the 150 mg dose), or any volume in between, of the 30 mg/mL 25HC3S product into a 100 mL dextrose or sodium chloride infusion bag. The entire admixture content in the infusion bag was infused into the subject over approximately 2 hours at a rate of 50 mL/hour.
# A physical and chemical compatibility study was conducted at a 30 mg, 48 mg and 300 mg 25HC3S dose in 5% dextrose and 0.9% sodium chloride infusion bags. Descriptions of the two kinds of infusion sets tested with 25HC3S product diluted in 5% dextrose and 0.9% sodium chloride are listed in Table 15. The tubing in catalog number 2H8480 infusion set was composed of polyvinylchloride (PVC), while the tubing in catalog number 2C8858 was polyethylene lined except for a short pump segment (approximately 12 inches) which was composed of PVC.
# 25HC3S for Injection and Vehicle for 25HC3S for Injection, that had been stored at 2-8° C. for approximately 16 months, were used for the compatibility study. After constitution, 30 mg (1.0 mL of constituted product), 48 mg (1.6 mL of constituted product) or 300 mg (10 mL of constituted product) were added to 100 mL infusion bags of 5% dextrose and 0.9% sodium chloride, mixed thoroughly, and stored for 24 hours at room temperature and at 2-8° C. […] Taking into consideration the overfill per infusion bag and the additional volume introduced by adding the constituted 25HC3S product to each bag, the expected concentrations of 25HC3S were 0.28 mg/mL, 0.44 mg/mL, and 2.56 mg/mL in the infusion bags. Two kinds of infusion sets were then attached to the drug containing infusion bags, and the entire contents were eluted through the infusion sets at approximately 50 mL/hour at room temperature. Samples were collected from the 25HC3S prepared infusion bags at T=0 and at 24 hours, and from the total eluent passed through the infusion sets, and tested for 25HC3S concentration using HPLC. Solution visual appearance, osmolality (using method USP<785>), and pH (using method USP<791>) were also measured on the collected samples.
# [1] = 5% dextrose, ~0.28 mg/mL, 24 h 2-8°C then Baxter 2C8858
# [2] = 5% dextrose, ~0.28 mg/mL, 24 h 2-8°C then Baxter 2H8480
# [3] = 5% dextrose, ~0.28 mg/mL, 24 h RT then Baxter 2C8858
# [4] = 5% dextrose, ~0.28 mg/mL, 24 h RT then Baxter 2H8480
# [5] = 5% dextrose, ~0.44 mg/mL, 24 h 2-8°C then Baxter 2C8858
# [6] = 5% dextrose, ~0.44 mg/mL, 24 h 2-8°C then Baxter 2H8480
# [7] = 5% dextrose, ~0.44 mg/mL, 24 h RT then Baxter 2C8858
# [8] = 5% dextrose, ~0.44 mg/mL, 24 h RT then Baxter 2H8480
# [9] = 5% dextrose, ~2.56 mg/mL, 24 h 2-8°C then Baxter 2C8858
# [10] = 5% dextrose, ~2.56 mg/mL, 24 h 2-8°C then Baxter 2H8480
# [11] = 5% dextrose, ~2.56 mg/mL, 24 h RT then Baxter 2C8858
# [12] = 5% dextrose, ~2.56 mg/mL, 24 h RT then Baxter 2H8480
compound,measurement,setting,value
"C[C@H](CCCC(C)(C)O)[C@H]1CC[C@H]2[C@@H]3CC=C4C[C@@H](OS(=O)(=O)[O-])CC[C@]4(C)[C@H]3CC[C@]12C.[Na+] [25HC3S, 5-cholesten-3, 25-diol, 3-sulfate]",Osmolality,"~0.28 mg/mL, 24 Hours at 2-8°C",250 mmol/kg and 253 mmol/kg
same,pH,"~0.28 mg/mL, 24 Hours at 2-8°C",7.09 and 7.04
same,% Remaining Compared to T = 0,"~0.28 mg/mL, 24 Hours at RT",(100.0%)
same,Concentration,"~0.28 mg/mL, 24 Hours at RT",276 µg/mL and 277 µg/mL
same,Osmolality,"~0.28 mg/mL, 24 Hours at RT",252 mmol/kg and 249 mmol/kg
same,pH,"~0.28 mg/mL, 24 Hours at RT",7.12 and 7.05
same,Osmolality,"~0.28 mg/mL, T = 0",247 mmol/kg and 250 mmol/kg and 251 mmol/kg
same,T = 0 Conc.,"~0.28 mg/mL, T = 0",0.276 mg/mL and 0.277 mg/mL and 0.280 mg/mL and 0.279 mg/mL
same,pH,"~0.28 mg/mL, T = 0",7.09 and 7.03 and 7.10 and 7.04
same,Concentration,"~0.44 mg/mL, 24 Hours at 2-8°C",438 µg/mL and 440 µg/mL
same,Osmolality,"~0.44 mg/mL, 24 Hours at 2-8°C",254 mmol/kg and 257 mmol/kg
same,pH,"~0.44 mg/mL, 24 Hours at 2-8°C",6.96 and 6.93
same,% Remaining Compared to T = 0,"~0.44 mg/mL, 24 Hours at RT",(100.0%)
same,Concentration,"~0.44 mg/mL, 24 Hours at RT",447 µg/mL and 442 µg/mL
same,Osmolality,"~0.44 mg/mL, 24 Hours at RT",256 mmol/kg and 253 mmol/kg
same,pH,"~0.44 mg/mL, 24 Hours at RT",6.91 and 6.90
same,Osmolality,"~0.44 mg/mL, T = 0",255 mmol/kg and 254 mmol/kg and 256 mmol/kg
same,T = 0 Conc.,"~0.44 mg/mL, T = 0",0.447 mg/mL and 0.442 mg/mL and 0.439 mg/mL
same,pH,"~0.44 mg/mL, T = 0",6.83 and 6.81 and 6.82 and 6.88
same,Concentration,"~2.56 mg/mL, 24 Hours at 2-8°C",2550 µg/mL and 2530 µg/mL
same,Osmolality,"~2.56 mg/mL, 24 Hours at 2-8°C",246 mmol/kg and 251 mmol/kg
same,pH,"~2.56 mg/mL, 24 Hours at 2-8°C",6.11 and 6.14
same,Concentration,"~2.56 mg/mL, 24 Hours at RT",2470 µg/mL and 2520 µg/mL
same,Osmolality,"~2.56 mg/mL, 24 Hours at RT",257 mmol/kg and 250 mmol/kg
same,pH,"~2.56 mg/mL, 24 Hours at RT",6.12 and 6.06
same,Osmolality,"~2.56 mg/mL, T = 0",258 mmol/kg and 247 mmol/kg
same,T = 0 Conc.,"~2.56 mg/mL, T = 0",2.500 mg/mL and 2.510 mg/mL and 2.530 mg/mL and 2.525 mg/mL
same,pH,"~2.56 mg/mL, T = 0",6.04 and 6.12 and 6.29 and 6.26
same,deviation of concentrations from initial T=0 time point,"5% dextrose, 24 hours at RT and 2-8°C and after elution through infusion sets",≤ 1.4%
same,% Remaining after infusion set,[1],(100.4%)
same,Concentration after infusion set,[1],280 µg/mL
same,Osmolality after infusion set,[1],252 mmol/kg
same,pH after infusion set,[1],6.99
same,% Remaining after infusion set,[2],(100.0%)
same,Concentration after infusion set,[2],280 µg/mL
same,Osmolality after infusion set,[2],251 mmol/kg
same,pH after infusion set,[2],6.95
same,% Remaining after infusion set,[3],(100.0%)
same,Concentration after infusion set,[3],277 µg/mL
same,Osmolality after infusion set,[3],252 mmol/kg
same,pH after infusion set,[3],7.04
same,% Remaining after infusion set,[4],(100.0%)
same,Concentration after infusion set,[4],276 µg/mL
same,Osmolality after infusion set,[4],252 mmol/kg
same,pH after infusion set,[4],6.99
same,% Remaining after infusion set,[5],(100.2%)
same,Concentration after infusion set,[5],440 µg/mL
same,Osmolality after infusion set,[5],255 mmol/kg
same,pH after infusion set,[5],6.93
same,% Remaining after infusion set,[6],(100.2%)
same,Concentration after infusion set,[6],440 µg/mL
same,Osmolality after infusion set,[6],257 mmol/kg
same,pH after infusion set,[6],6.91
same,% Remaining after infusion set,[7],(100.0%)
same,Concentration after infusion set,[7],442 µg/mL
same,Osmolality after infusion set,[7],253 mmol/kg
same,pH after infusion set,[7],6.90
same,% Remaining after infusion set,[8],(100.2%)
same,Concentration after infusion set,[8],448 µg/mL
same,Osmolality after infusion set,[8],253 mmol/kg
same,pH after infusion set,[8],6.91
same,% Remaining after infusion set,[9],(100.4%)
same,Concentration after infusion set,[9],2535 µg/mL
same,Osmolality after infusion set,[9],248 mmol/kg
same,pH after infusion set,[9],6.10
same,% Remaining after infusion set,[10],(100.4%)
same,Concentration after infusion set,[10],2540 µg/mL
same,Osmolality after infusion set,[10],247 mmol/kg
same,pH after infusion set,[10],5.99
same,% Remaining after infusion set,[11],(101.4%)
same,Concentration after infusion set,[11],2545 µg/mL
same,Osmolality after infusion set,[11],251 mmol/kg
same,pH after infusion set,[11],6.00
same,% Remaining after infusion set,[12],(99.2%)
same,Concentration after infusion set,[12],2480 µg/mL
same,Osmolality after infusion set,[12],261 mmol/kg
same,pH after infusion set,[12],6.01
same,solution appearance,"dextrose and sodium chloride, all three concentrations, after 24 hours in bags and after elution",clear and colorless solutions
same,decrease of pH over 24 hours in the infusion bags,"sodium chloride, approximately 0.28 mg/mL 25HC3S",~0.5 pH unit
